This note sets out measurements from US20100292214A1, “Compounds with Antiparasitic Activity, Applications thereof to the Treatment of Infectious Diseases Caused by Apicomplexans” (commissariat a l'Energie Atomique, priority 2007, published 2010).

Assay [1] has as its system asynchronous 3D7 chloroquine-sensitive P. falciparum infected red blood cells. Description: Labeled hypoxanthine incorporation assay (in vitro anti-malarial activity). Format: cell-based. Particulars: Plasmodium falciparum, 3D7, Erythrocyte, 3D7 chloroquine-sensitive strain, infected RBC, 48 h contact, [3H]-hypoxanthine incorporation; two independent experiments in duplicates; read-out: IC50 assessed on Plasmodium Falciparum.

The subject of assay [2] is Toxoplasma gondii RH-β1 strain. Put plainly: microbe, parasite or virus in culture. Format: cell-based. Particulars: Toxoplasma gondii, read-out: IC50 assessed on Toxoplama Gondii.

In general, IC50 refers to the concentration at which inhibition is half-maximal. Turning to `CCN(CCOC(=O)N1CCC(n2c(=O)[nH]c3ccccc32)CC1)c1ccccc1` [Compound 41, 2-(ethyl(phenyl)amino)ethyl 4-(2-oxo-2,3-dihydro-1H-benzo[d]imidazol-1-yl)piperidine-1-carboxylate], the IC50 in assay [1] amounted to 24400 nM; in assay [2], 1800 nM.
The corresponding values for `O=C(OC[C@@H]1CCCN1Cc1ccccc1)N1CCC(n2c(=O)[nH]c3ccccc32)CC1` [Compound 42, ((S)-1-benzylpyrrolidin-2-yl)methyl 4-(1,2-dihydro-2-oxobenzo[d]imidazol-3-yl)piperidine-1-carboxylate] are 18800 nM and 5000 nM.
For `O=C(OCC(c1ccccc1)c1ccccc1)N1CCC(n2c(=O)[nH]c3ccccc32)CC1` [Compound 43, 2,2-diphenylethyl 4-(1,2-dihydro-2-oxobenzo[d]imidazol-3-yl)piperidine-1-carboxylate], in that order: 8330 nM and 12000 nM.
Take `C[C@@H](COC(=O)N1CCC(c2c[nH]c3ccccc23)CC1)N(Cc1ccccc1)Cc1ccccc1` [Compound 44, (S)-2-(dibenzylamino)propyl 4-(1H-indol-3-yl)piperidine-1-carboxylate]: the figures for the IC50 in assay [1] and in assay [2] were 5210 nM and 1850 nM, respectively.
For `O=c1[nH]c2ccccc2n1C1CCN(C(=S)OCCN(Cc2ccccc2)Cc2ccccc2)CC1` [Compound 46, O-2-(dibenzylamino)ethyl 4-(1,2-dihydro-2-oxobenzo[d]imidazol-3-yl)piperidine-1-carbothioate], in that order: 2840 nM and 181 nM.
For `O=c1[nH]c2ccccc2n1C1CCN(C(=S)OCCOCc2ccccc2)CC1` [Compound 47, O-2-(benzyloxy)ethyl 4-(1,2-dihydro-2-oxobenzo[d]imidazol-3-yl)piperidine-1-carbothioate], in that order: 23200 nM and 1130 nM.
The corresponding values for `C[C@@H](COC(=S)N1CCC(n2c(=O)[nH]c3ccccc32)CC1)N(Cc1ccccc1)Cc1ccccc1` [Compound 48, O—(S)-2-(dibenzylamino)propyl 4-(1,2-dihydro-2-oxobenzo[d]imidazol-3-yl)piperidine-1-carbothioate] are 2950 nM and 1180 nM.
Turning to `O=c1[nH]c2ccccc2n1C1CCN(CCCN(Cc2ccccc2)Cc2ccccc2)CC1` [Compound 49, 1-(1-(3-(dibenzylamino)propyl)piperidin-4-yl)-1H-benzo[d]imidazol-2(3H)-one], the IC50 in assay [1] is 1270 nM; in assay [2] it was 800 nM.
For `C[C@@H](CN1CCC(n2c(=O)[nH]c3ccccc32)CC1)N(Cc1ccccc1)Cc1ccccc1` [Compound 50, 1-(1-((S)-2-(dibenzylamino)propyl)piperidin-4-yl)-1H-benzo[d]imidazol-2(3H)-one], the IC50 in assay [1] came to 3340 nM; in assay [2], 7000 nM.
The corresponding values for `O=c1[nH]c2ccccc2n1C1CCN(C[C@H](Cc2ccccc2)N(Cc2ccccc2)Cc2ccccc2)CC1` [Compound 51, 1-(1-((S)-2-(dibenzylamino)-3-phenylpropyl)piperidin-4-yl)-1H-benzo[d]imidazol-2(3H)-one] are 2110 nM and 4000 nM.
The corresponding values for `O=c1[nH]c2ccccc2n1C1CCN(CCN(Cc2ccccc2)Cc2ccccc2)CC1` [Compound 52, 1-(1-(2-(dibenzylamino)ethyl)piperidin-4-yl)-1H-benzo[d]imidazol-2(3H)-one] are 1570 nM and 2000 nM.
For `O=C(OC[C@H](Cc1ccccc1)N(Cc1ccccc1)Cc1ccccc1)N1CCC(n2c(=O)n(S(=O)(=O)c3ccccc3)c3ccccc32)CC1` [Compound 53, (S)-2-(dibenzylamino)-3-phenylpropyl 4-(1,2-dihydro-3-phenylsulfonyl-2-oxobenzo[d]imidazol-1-yl)piperidine-1-carboxylate], the figures for the IC50 in assay [1] and in assay [2] were 1940 nM and 22000 nM, respectively.
Turning to `C[C@@H](COC(=O)N1CCC(n2c(=O)n(S(=O)(=O)c3ccccc3)c3ccccc32)CC1)N(Cc1ccccc1)Cc1ccccc1` [Compound 54, (S)-2-(dibenzylamino)propyl 4-(2-oxo-3-phenylsulfonyl-2,3-dihydro-1H-benzo[d]imidazol-1-yl)piperidine-1-carboxylate], the IC50 came out at 230 nM in assay [1] and 1680 nM in assay [2].
`CCCc1ccc(S(=O)(=O)n2c(=O)n(C3CCN(C(=O)OC[C@H](C)N(Cc4ccccc4)Cc4ccccc4)CC3)c3ccccc32)cc1` [Compound 55, (S)-2-(dibenzylamino)propyl 4-(2-oxo-3-(4-propylphenylsulfonyl)-2,3-dihydro-1H-benzo[d]imidazol-1-yl)piperidine-1-carboxylate]: the IC50 in assay [1] is 9100 nM; in assay [2] it was 5500 nM.
For the molecule `C[C@@H](COC(=O)N1CCC(n2c(=O)n(S(=O)(=O)c3ccc(F)cc3)c3ccccc32)CC1)N(Cc1ccccc1)Cc1ccccc1` [Compound 56, (S)-2-(dibenzylamino)propyl 4-(3-(4-fluorophenylsulfonyl)-2-oxo-2,3-dihydro-1H-benzo[d]imidazol-1-yl)piperidine-1-carboxylate], the IC50 was 330 nM in assay [1] and 1500 nM in assay [2].
The corresponding values for `COc1ccc(S(=O)(=O)n2c(=O)n(C3CCN(C(=O)OC[C@H](C)N(Cc4ccccc4)Cc4ccccc4)CC3)c3ccccc32)cc1` [Compound 57, (S)-2-(dibenzylamino)propyl 4-(3-(4-methoxyphenylsulfonyl)-2-oxo-2,3-dihydro-1H-benzo[d]imidazol-1-yl)piperidine-1-carboxylate] are 410 nM and 1750 nM.
The corresponding values for `C[C@@H](COC(=O)N1CCC(n2c(=O)n(S(=O)(=O)c3ccc(C(F)(F)F)cc3)c3ccccc32)CC1)N(Cc1ccccc1)Cc1ccccc1` [Compound 58, (S)-2-(dibenzylamino)propyl 4-(2-oxo-3-(4-(trifluoromethyl)phenylsulfonyl)-2,3-dihydro-1H-benzo[d]imidazol-1-yl)piperidine-1-carboxylate] are 420 nM and 8500 nM.
Turning to `C[C@@H](COC(=O)N1CCC(n2c(=O)n(S(=O)(=O)c3cccs3)c3ccccc32)CC1)N(Cc1ccccc1)Cc1ccccc1` [Compound 59, (S)-2-(dibenzylamino)propyl 4-(2-oxo-3-(thiophen-2-ylsulfonyl)-2,3-dihydro-1H-benzo[d]imidazol-1-yl)piperidine-1-carboxylate], the IC50 in assay [1] came out at 470 nM; in assay [2], 3800 nM.
The corresponding values for `C[C@@H](COC(=O)N1CCC(n2c(=O)n(S(=O)(=O)c3cccc4ccccc34)c3ccccc32)CC1)N(Cc1ccccc1)Cc1ccccc1` [Compound 61, (S)-2-(dibenzylamino)propyl 4-(3-(naphthalen-1-ylsulfonyl)-2-oxo-2,3-dihydro-1H-benzo[d]imidazol-1-yl)piperidine-1-carboxylate] are 950 nM and 2300 nM.
For `C[C@@H](COC(=O)N1CCC(n2c(=O)n(S(C)(=O)=O)c3ccccc32)CC1)N(Cc1ccccc1)Cc1ccccc1` [Compound 62, (S)-2-(dibenzylamino)propyl 4-(2-oxo-3-methylsulfonyl-2,3-dihydro-1H-benzo[d]imidazol-1-yl)piperidine-1-carboxylate], in that order: 1600 nM and 1980 nM.
The corresponding values for `CC(=O)Nc1ccc(S(=O)(=O)n2c(=O)n(C3CCN(C(=O)OC[C@H](C)N(Cc4ccccc4)Cc4ccccc4)CC3)c3ccccc32)cc1` [Compound 63, (S)-2-(dibenzylamino)propyl 4-(2-oxo-3-(4-acetamidylphenylsulfonyl)-2,3-dihydro-1H-benzo[d]imidazol-1-yl)piperidine-1-carboxylate] are 1540 nM and 3000 nM.
As to `C[C@@H](COC(=O)N1CCC(n2c(=O)n(C(=O)c3ccccc3)c3ccccc32)CC1)N(Cc1ccccc1)Cc1ccccc1` [Compound 64, (S)-2-(dibenzylamino)propyl 4-(1,2-dihydro-2-oxo-1-(benzoyl)benzo[d]imidazol-3-yl)piperidine-1-carboxylate], the IC50 in assay [1] is 2880 nM; in assay [2] it was 960 nM.
The corresponding values for `CC(=O)n1c(=O)n(C2CCN(C(=O)OC[C@H](C)N(Cc3ccccc3)Cc3ccccc3)CC2)c2ccccc21` [Compound 65, (S)-2-(dibenzylamino)propyl 4-(1-acetyl-1,2-dihydro-2-oxobenzo[d]imidazol-3-yl)piperidine-1-carboxylate] are 2940 nM and 990 nM.
For `C[C@@H](COC(=O)N1CCC(n2c(=O)n(C(=O)OC(C)(C)C)c3ccccc32)CC1)N(Cc1ccccc1)Cc1ccccc1` [Compound 67, tert-butyl 3-(1-(((S)-2-(dibenzylamino)propoxy)carbonyl)piperidin-4-yl)-2,3-dihydro-2-oxobenzo[d]imidazole-1-carboxylate], in that order: 785 nM and 2000 nM.
The corresponding values for `Cn1c(=O)n(C2CCN(C(=O)OC[C@H](Cc3ccccc3)N(Cc3ccccc3)Cc3ccccc3)CC2)c2ccccc21` [Compound 68, (S)-2-(dibenzylamino)-3-phenylpropyl 4-(1,2-dihydro-1-methyl-2-oxobenzo[d]imidazol-3-yl)piperidine-1-carboxylate] are 452 nM and 800 nM.
Turning to `C[C@@H](COC(=O)N1CCC(n2c(=O)n(C)c3ccccc32)CC1)N(Cc1ccccc1)Cc1ccccc1` [Compound 69, (S)-2-(dibenzylamino)propyl 4-(1,2-dihydro-1-methyl-2-oxobenzo[d]imidazol-3-yl)piperidine-1-carboxylate], the results for the IC50 in assay [1] and in assay [2] were 1540 nM and 200 nM, respectively.
For `O=C(OC[C@H](Cc1ccccc1)N(Cc1ccccc1)Cc1ccccc1)N1CCC(n2c(=O)n(Cc3ccccc3)c3ccccc32)CC1` [Compound 70, (S)-2-(dibenzylamino)-3-phenylpropyl 4-(1-benzyl-1,2-dihydro-2-oxobenzo[d]imidazol-3-yl)piperidine-1-carboxylate], in that order: 953 nM and 3600 nM.
